Legend:
[1] = target: T1, full length recombinant Pim-1 protein (Homo sapiens, UniProt P11309); test: Pim-1 enzyme assay (HTRF, phosphorylation of biotinylated-BAD (S112) peptide); format: biochemical; details: read-out: Pim_1_IC50
T1 construct: by full length recombinant Pim-1, Pim-2, or Pim-3 protein; hexahistidine tag followed by a thrombin cleavage site (N); made in house; host or cells: Sf9 (baculovirus) or E. coli (pET28)
Description: (§1) These cDNAs were used as templates in PCR reactions to produce full-length DNA clones of the PIMs. […] PCR products were digested with […] and EcoRI for Pim-1 and BamHI and EcoRI for Pim-2 and ligated into a modified baculovirus transfer vector (pFastBac1) cleaved with BamHI and EcoRI. For bacterial expression, the same cleaved PCR products encoding Pim-1 or Pim-2 were ligated into a modified E. coli expression vector pET28(a) cleaved with BamHI and EcoRI Amino-terminal hexahistidine tags followed by a thrombin cleavage site were previously added to the vectors using standard methods of molecular biology. Recombinant baculoviruses expressing Pim-1 or Pim-2 were made using standard methods (Fastbac manual, Invitrogen, Carlsbad, Calif.). Infection of Sf9 cells was done at an m.o.i. of greater than 5 for 24-48 h. Cells were harvested by centrifugation and frozen at −80 C. For E. coli expression, cells carrying pET28-His6-Th-Pim-1 or pET28-His6-Th-Pim-2 were picked from a single colony and grown o/n in LB media. The o/n culture was used to inoculate a 2 liter flask with 500 mL media. This was grown o/n and used to inoculate 15-20 liters of Terrific Broth in a New Brunswick Scientific fermentor. The E. coli were grown at 37° C. to and OD600>1.6. The temperature was dropped to 18° C. and o/n expression was induced with 0.5 mM IPTG. Cells were harvested by centrifugation and frozen at −80° C.
(§2) This step was repeated 3× and the resin was transferred to a 2.5 cm glass column. Ten column volumes of wash buffer (0.05 M HEPES, pH 8.0, 0.1 M NaCl, 0.01 M 2-mercaptoethanol, 10% (w/v) glycerol) were applied to the resin followed by 10 column volumes of elution buffer (0.05 M HEPES, pH 8.0, 0.25 M NaCl, 0.01 M 2-mercaptoethanol, 10% (w/v) glycerol, 0.1 M imidazole). Fractions were analyzed by SDS-PAGE and those containing the protein of interest were pooled and concentrated. The concentrated protein was applied to an Amersham Superdex 75 (XK 26/60) column equilibrated in 0.025 M Tris-HCl, pH 7.5, 0.1 M NaCl, 0.01 M 2-mercaptoethanol, 10% (w/v) glycerol. […] Fractions containing the monomeric protein of interest were pooled, concentrated to ˜2 mg/mL, and stored at −80° C.
(§3) The phosphorylation of biotinylated-BAD (S112) peptide by full length recombinant Pim-1, Pim-2, or Pim-3 protein was detected with streptavidin:Allophycocyanin (APC) conjugate and a europium (Eu) labeled antibody directed against phosphorylated-BAD (S112). […] The fluorescence is directly proportional to the amount of phosphorylated BAD peptide present in the reaction.
(§4) A reference compound was included on each assay plate in order to validate that plate; on one plate of every assay run, two additional reference compounds were included.
(§5) The final buffer conditions were as follows: 60 mM Hepes, pH 7.0, 0.05% BSA, 2 mM DTT. […] The reaction was stopped by the addition of 3 mM EDTA, and fluorescence was measured by an HTRF® Rubystar microplate reader. For each plate, percent of control (POC) values were calculated for each well. Values for the IC50 IP were estimated using a standard 4-parameter logistic model.

[2] = target: T2, full length recombinant Pim-2 protein (Homo sapiens, UniProt Q9P1W9); test: Pim-2 enzyme assay (HTRF, phosphorylation of biotinylated-BAD (S112) peptide); format: biochemical; details: read-out: Pim2_IC50
T2 construct: by full length recombinant Pim-1, Pim-2, or Pim-3 protein; hexahistidine tag followed by a thrombin cleavage site (N); made in house; host or cells: Sf9 (baculovirus) or E. coli (pET28)
T2 sequence (Q9P1W9 whole entry): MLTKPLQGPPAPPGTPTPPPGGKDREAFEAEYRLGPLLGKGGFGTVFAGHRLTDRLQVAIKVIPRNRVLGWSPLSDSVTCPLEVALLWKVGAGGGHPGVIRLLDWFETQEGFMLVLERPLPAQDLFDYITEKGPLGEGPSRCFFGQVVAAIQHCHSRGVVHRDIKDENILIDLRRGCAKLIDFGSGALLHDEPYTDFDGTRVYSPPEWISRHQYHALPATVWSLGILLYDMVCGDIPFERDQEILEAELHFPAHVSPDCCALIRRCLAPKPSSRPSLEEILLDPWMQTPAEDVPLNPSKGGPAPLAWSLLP
Description: as §1, §2, §3, §4, §5

T1 sequence (P11309 whole entry): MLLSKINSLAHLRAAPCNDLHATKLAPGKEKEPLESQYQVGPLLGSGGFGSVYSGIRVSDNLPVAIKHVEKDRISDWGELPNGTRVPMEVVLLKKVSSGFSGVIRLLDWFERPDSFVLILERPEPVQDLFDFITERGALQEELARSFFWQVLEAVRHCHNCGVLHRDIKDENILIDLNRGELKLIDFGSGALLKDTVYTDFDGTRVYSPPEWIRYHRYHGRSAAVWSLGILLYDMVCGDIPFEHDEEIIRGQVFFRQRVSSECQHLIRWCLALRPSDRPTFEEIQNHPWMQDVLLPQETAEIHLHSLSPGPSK

| Structure (SMILES) | IC50 [1] [nM] | IC50 [2] [nM] |
| --- | --- | --- |
| C[C@@H]1COCCN1c1ccc2[nH]nc(-c3cncc(O[C@H]4CNCCC45CC5)n3)c2c1 [Example 403] | 70 | 58 |
| O=C1COCCN1c1ccc2[nH]nc(-c3cncc(O[C@H]4CNCCC45CC5)n3)c2c1 [Example 405] | 159 | 447 |
| Brc1ccc2[nH]nc(-c3cncc(O[C@H]4CNCCC45CC5)n3)c2c1 [Example 422] | 22 | 82 |
| Oc1cncc(-c2n[nH]c3ccc(-c4ccccc4F)cc23)n1 [Example 435] | 322 | 629 |
| CN1CCC(Oc2cncc(-c3n[nH]c4ccc(-c5c(F)cccc5F)cc34)n2)CC1 [Example 445] | 20 | 43 |
| O[C@@H]1CN(c2cncc(-c3n[nH]c4ccc(-c5c(F)cccc5F)cc34)n2)C[C@@H]1O [Example 448] | 105 | 137 |
| OC1CN(c2cncc(-c3n[nH]c4ccc(-c5c(F)cccc5F)cc34)n2)CC1O (stereo not drawn) [Example 449] | 159 | 639 |
| OC1CN(c2cncc(-c3n[nH]c4ccc(-c5c(F)cccc5F)cc34)n2)CC1O (stereo not drawn) [Example 450] | 159 | 453 |
| Nc1ncc(-c2ccc3[nH]nc(-c4cncc(O[C@H]5CNCCC56CC6)n4)c3c2)cn1 [Example 464] | 4 | 17 |
| CNC(=O)c1ccc2[nH]nc(-c3cncc(NC4CCNCC4)n3)c2c1 [Example 471] | 171 | 329 |
| COc1cc(N2CCC(N)CC2)nc(-c2n[nH]c3ccc(-c4c(F)cccc4F)cc23)n1 [Example 472] | 112 | 617 |
| CNC(=O)c1ccc2[nH]nc(-c3cncc(N[C@@H]4CCCNC4)n3)c2c1 [Example 475] | 30 | 192 |
| CNC(=O)c1ccc2[nH]nc(-c3cncc(O[C@@H]4CCCNC4)n3)c2c1 [Example 478] | 180 | > 1000 |
| COc1cc(N[C@@H]2CCCNC2)nc(-c2c[nH]c3ccc(-c4c(F)cccc4F)cc23)n1 [Example 479] | 112 | 77 |
| CNC(=O)c1ccc2[nH]nc(-c3cncc(N4CCC(N)CC4)n3)c2c1 [Example 480] | 106 | 203 |
| CN(C)C(=O)c1ccc2[nH]nc(-c3ccnc(N[C@@H]4CCCNC4)n3)c2c1 [Example 481] | 444 | 719 |
| CN(C)C(=O)c1ccc2[nH]nc(-c3cncc(N4CCC(N)CC4)n3)c2c1 [Example 484] | 374 | > 1000 |
| COC(=O)c1ccc2[nH]nc(-c3nccc(NC4CCNCC4)n3)c2c1 [Example 485] | 26 | 26 |

| Structure (SMILES) | IC50 [1] [nM] | IC50 [2] [nM] |
| --- | --- | --- |
| COC(=O)c1ccc2[nH]nc(-c3nccc(N[C@@H]4CCCNC4)n3)c2c1 [Example 486] | 72 | 543 |
| CN(C)C(=O)c1ccc2[nH]nc(-c3cncc(NC4CCNCC4)n3)c2c1 [Example 487] | 159 | 217 |
| COC(=O)c1ccc2[nH]nc(-c3nccc(N4CCC(N)CC4)n3)c2c1 [Example 488] | 46 | 55 |
| CN(C)c1nc(-c2c[nH]c3ccc(-c4c(F)cccc4F)cc23)cc(=O)[nH]1 [Example 492] | 46 | 109 |
| COc1cc(-c2c[nH]c3ccc(-c4c(F)cccc4F)cc23)nc(O[C@@H]2CCCNC2)n1 [Example 493] | 834 | 653 |
| CN(C)C(=O)c1ccc2[nH]nc(-c3cncc(N[C@@H]4CCCNC4)n3)c2c1 [Example 494] | 834 | > 1000 |
| CN(C)c1cc(=O)[nH]c(-c2c[nH]c3ccc(-c4c(F)cccc4F)cc23)n1 [Example 496] | 159 | > 1000 |
| COC(=O)c1ccc2[nH]nc(-c3ccnc(O[C@@H]4CCCNC4)n3)c2c1 [Example 497] | 46 | 207 |
| COC(=O)c1ccc2[nH]nc(-c3nccc(O[C@@H]4CCCNC4)n3)c2c1 [Example 498] | 70 | 726 |
| CC(C)Nc1cc(=O)[nH]c(-c2c[nH]c3ccc(-c4c(F)cccc4F)cc23)n1 [Example 499] | 364 | > 1000 |
| CC(C)Nc1nc(-c2c[nH]c3ccc(-c4c(F)cccc4F)cc23)cc(=O)[nH]1 [Example 500] | 9 | 19 |
| CC1CCCCN1c1nc(-c2ccc3[nH]cc(-c4cncc(O[C@@H]5CCCNC5)n4)c3c2)cs1 (stereo partly drawn) [Example 501] | 91 | 812 |
| c1ncc(-c2ccc3[nH]cc(-c4cncc(O[C@@H]5CCCNC5)n4)c3c2)cc1NC1CC1 [Example 502] | 20 | 424 |
| Clc1cncc(-c2ccc3[nH]cc(-c4cncc(O[C@@H]5CCCNC5)n4)c3c2)c1 [Example 505] | 29 | 225 |
| CC(C)Oc1cncc(-c2ccc3[nH]cc(-c4nnc(N[C@H]5CCNC5)o4)c3c2)n1 [Example 511] | 98 | 480 |
| CC(C)Oc1cncc(-c2ccc3[nH]cc(-c4nnc(N[C@@H]5CCNC5)o4)c3c2)n1 [Example 512] | 47 | 93 |
| CC(C)Oc1cncc(-c2ccc3[nH]cc(-c4nnc(NC5CCNCC5)o4)c3c2)n1 [Example 513] | 48 | 218 |
| CC(C)Oc1cncc(-c2ccc3[nH]cc(-c4nnc(N[C@H]5CCCNC5)o4)c3c2)n1 [Example 514] | 52 | 194 |

Continued, values first:

| IC50 [1] [nM] | IC50 [2] [nM] | Structure (SMILES) |
| --- | --- | --- |
| 52 | 527 | CC(C)Oc1cncc(-c2ccc3[nH]cc(-c4nnc(N5CCCC5)o4)c3c2)n1 [Example 520] |
| 425 | > 1000 | c1cnc(-c2c[nH]c3ccc(-c4cncc(C5CC5)n4)cc23)cn1 [Example 521] |
| 90 | 446 | CC(C)Nc1nnc(-c2c[nH]c3ccc(-c4cncc(OC(C)C)n4)cc23)o1 [Example 522] |
| 359 | > 1000 | CC(C)Oc1cncc(-c2ccc3[nH]cc(-c4nnc(Nc5ccccc5)o4)c3c2)n1 [Example 523] |
| 34 | 91 | CN(C)c1nc(-c2n[nH]c3ccc(-c4c(F)cccc4F)cc23)cc(=O)[nH]1 [Example 526] |
| 834 | 565 | O=c1cc(-c2n[nH]c3ccc(-c4c(F)cccc4F)cc23)nc[nH]1 [Example 530] |
| 20 | 182 | COC(=O)c1ccc2[nH]cc(-c3nccc(N[C@@H]4CCCNC4)n3)c2c1 [Example 531] |
| 4 | 56 | COC(=O)c1ccc2[nH]cc(-c3cncc(N[C@@H]4CCCNC4)n3)c2c1 [Example 532] |
| 105 | 237 | COC(=O)c1ccc2[nH]cc(-c3ccnc(N[C@@H]4CCCNC4)n3)c2c1 [Example 533] |
| 70 | 262 | CCCCc1nc(-c2n[nH]c3ccc(-c4c(F)cccc4F)cc23)cc(=O)[nH]1 [Example 535] |
| 30 | 208 | N#Cc1ccc2[nH]cc(-c3cncc(N[C@@H]4CCCNC4)n3)c2c1 [Example 536] |
| 241 | > 1000 | O=C(O)c1ccc2[nH]cc(-c3cncc(N[C@@H]4CCCNC4)n3)c2c1 [Example 538] |
| 834 | > 1000 | O=C(O)c1ccc2[nH]cc(-c3nccc(N[C@@H]4CCCNC4)n3)c2c1 [Example 539] |
| 70 | 396 | N#Cc1ccc2[nH]nc(-c3cncc(N[C@@H]4CCCNC4)n3)c2c1 [Example 540] |
| 30 | 58 | O=c1cc(-c2n[nH]c3ccc(-c4c(F)cccc4F)cc23)nc(N2CC[C@H](O)C2)[nH]1 [Example 543] |
